# Assay results published in US10961215B2, “N-aryl and N-heteroaryl piperidine derivatives as liver X receptor beta agonists, compositions, and their use” (Merck Sharp & Dohme Corp., priority 2016, dated 2021).
# Experiments:
# [1] = target: T1, GST tagged LXRbeta LBD (ligand binding domain) (Homo sapiens, UniProt P55055); test: LanthaScreen TR-FRET Liver X Receptor Coactivator Assay, LXR beta-LBD (co-activator recruitment; IP and % Emax relative to T0901317); format: biochemical; conditions: for EC50: Inflection Point of co-activator recruitment, LXR beta-LBD, TR-FRET; for Emax: efficacy at max dose in relation to reference T0901317, LXR beta-LBD, read-out: LXR beta actiivty at max dose (%)
# T1 construct: purchased Invitrogen pv4658.pps
# T1 sequence (P55055 222-460 limits assumed): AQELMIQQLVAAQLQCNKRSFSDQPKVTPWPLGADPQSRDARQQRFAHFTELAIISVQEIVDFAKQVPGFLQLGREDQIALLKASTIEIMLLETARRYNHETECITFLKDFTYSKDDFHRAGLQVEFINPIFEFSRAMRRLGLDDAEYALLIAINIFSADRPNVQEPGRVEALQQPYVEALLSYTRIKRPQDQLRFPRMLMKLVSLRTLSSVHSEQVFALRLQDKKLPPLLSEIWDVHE
# Summary of the method: (§1)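 Coactivator recruitment is scored against T0901317 as reference dual agonist, giving inflection-point potency and Emax. Compounds met the GST-LBD protein first, then a mix of terbium anti-GST antibody and fluorescein coactivator peptide. TR-FRET was measured after incubation at room temperature.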
# [2] = target: T2, GST tagged LXRalpha LBD (ligand binding domain) (Homo sapiens, UniProt Q13133); test: LanthaScreen TR-FRET Liver X Receptor Coactivator Assay, LXR alpha-LBD (co-activator recruitment; IP and % Emax relative to T0901317); format: biochemical; conditions: for LXR alpha IP (nM) / EC50: Inflection Point of co-activator recruitment, LXR alpha-LBD, TR-FRET; for Emax: efficacy at max dose in relation to reference T0901317, LXR alpha-LBD, read-out: LXR alpha actiivty at max dose (%)
# T2 construct: purchased Invitrogen pv4655
# T2 sequence (Q13133 209-447 limits assumed): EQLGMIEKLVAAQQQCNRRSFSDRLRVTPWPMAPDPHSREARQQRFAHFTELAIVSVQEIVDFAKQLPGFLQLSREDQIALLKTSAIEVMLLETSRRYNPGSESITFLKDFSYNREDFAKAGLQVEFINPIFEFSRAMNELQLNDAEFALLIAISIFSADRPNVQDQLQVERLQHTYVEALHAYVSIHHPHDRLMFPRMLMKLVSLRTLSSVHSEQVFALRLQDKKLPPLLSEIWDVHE
# Summary of the method: as §1
SMILES,EC50 [1],Emax [1],LXR alpha IP (nM) [2],Emax [2],EC50 [2]
"CN(C)C(=O)c1ccc(N2CCC([C@@H]3C[C@H]3CNC(=O)[C@](O)(c3ccccc3)C(F)(F)F)CC2)nc1Cl [Example 15-14, 2-chloro-N,N-dimethyl-6-(4-((1S,2R)-2-(((R)-3,3,3-trifluoro-2-hydroxy-2-phenylpropanamido)methyl)cyclopropyl)piperidin-1-yl)nicotinamide]",264 nM,69%,No IP,3%,
"CN(C)C(=O)c1ccc(N2CCC(CCCNC(=O)[C@](O)(c3cccc(OC(F)(F)F)c3)C(F)(F)F)CC2)nc1Cl [Example 5-12, (R)-2-chloro-N,N-dimethyl-6-(4-(3-(3,3,3-trifluoro-2-hydroxy-2-(3-(trifluoromethoxy)phenyl)propanamido)propyl)piperidin-1-yl)nicotinamide]",1010 nM,40%,,40%,13200 nM
"CN(C)C(=O)c1ccc(N2CCC(CCCN(C)C(=O)C3(c4ccccc4)CCC3)CC2)nc1Cl [Example 1-43, 2-chloro-N,N-dimethyl-6-(4-(3-(N-methyl-1-phenyl-cyclobutanecarboxamido)propyl)piperidin-1-yl)nicotinamide]",110 nM,54%,No IP,11%,
"CN(C)C(=O)c1ccc(N2CCC(CCCNC(=O)C(O)(c3ccccc3)C(F)(F)F)CC2)nc1Cl (centres unmarked) [Example 5-6, 2-chloro-N,N-dimethyl-6-(4-(3-(3,3,3-trifluoro-2-hydroxy-2-phenylpropanamido)propyl)piperidin-1-yl)nicotinamide]",267 nM,105%,,23%,3700 nM
"COc1cccc([C@@](O)(C(=O)N(C)CCCC2CCN(c3ccc(C(=O)N(C)C)c(Cl)n3)CC2)C(F)F)c1 [Example 1-53, (R)-2-chloro-6-(4-(3-(3,3-difluoro-2-hydroxy-2-(3-methoxyphenyl)-N-methylpropanamido)propyl)piperidin-1-yl)-N,N-dimethylnicotinamide]",580 nM,43%,No IP,0%,
COc1cccc([C@@](O)(C(=O)N(C)CCC2CC3(CCN(c4ccc(C(=O)N(C)C)c(Cl)n4)CC3)C2)C(F)(F)F)c1 [Example 13-1],34 nM,50%,,26%,472 nM
"CNC(=O)c1ccc(N2CCC([C@H]3C[C@H]3CNC(=O)[C@](O)(c3cccc(OC)c3)C(F)(F)F)CC2)nc1Cl [Example 15-11, 2-chloro-N-methyl-6-(4-((1R,2R)-2-(((R)-3,3,3-trifluoro-2-hydroxy-2-(3-methoxyphenyl)propanamido)methyl)cyclopropyl)piperidin-1-yl)nicotinamide]",4440 nM,36%,No IP,1%,
"COc1cccc([C@@](O)(C(=O)N(C)CCCC2CCN(c3ccc(C(=O)N(C)C)c(Cl)n3)CC2)C(F)(F)F)c1 [Example 1-9, (R)-2-chloro-N,N-dimethyl-6-(4-(3-(3,3,3-trifluoro-2-hydroxy-2-(3-methoxyphenyl)-N-methylpropanamido)propyl)piperidin-1-yl)nicotinamide]",46 nM,69%,No IP,4%,
"COc1cccc([C@@](O)(C(=O)N(C)CC2CC(C3CCN(c4ccc(C(=O)N(C)C)c(Cl)n4)CC3)C2)C(F)(F)F)c1 (stereo partly drawn) [Example 16-1, (R)-2-chloro-N,N-dimethyl-6-(4-(3-((3,3,3-trifluoro-2-hydroxy-2-(3-methoxyphenyl)-N-methylpropanamido)methyl)cyclobutyl)piperidin-1-yl)nicotinamide]",47 nM,64%,,36%,1400 nM
"CNC(=O)c1ccc(N2CCC(c3ccc(NC(=O)[C@](O)(c4cccc(OC)c4)C(F)(F)F)cc3)CC2)cc1Cl [Example 10-2, (R)-2-chloro-N-methyl-4-(4-(4-(3,3,3-trifluoro-2-hydroxy-2-(3-methoxyphenyl)propanamido)phenyl)piperidin-1-yl)benzamide]",3730 nM,40%,No IP,0%,
"COc1cccc([C@@](O)(C(=O)N(C)CCCC2CCN(c3ccc(C(=O)N4CC(N)C4)c(Cl)n3)CC2)C(F)(F)F)c1 [Example 2-13, (R)-N-(3-(1-(5-(3-aminoazetidine-1-carbonyl)-6-chloropyridin-2-yl)piperidin-4-yl)propyl)-3,3,3-trifluoro-2-hydroxy-2-(3-methoxyphenyl)-N-methylpropanamide]",195 nM,60%,No IP,11%,
"CN(C)C(=O)c1ccc(N2CCC(CCCN(C)C(=O)[C@@](C)(O)c3ccccc3)CC2)nc1Cl [Example 1-21, (S)-2-chloro-6-(4-(3-(2-hydroxy-N-methyl-2-phenylpropanamido)propyl)piperidin-1-yl)-N,N-dimethylnicotinamide]",330 nM,60%,No IP,9%,
"CN(C)C(=O)c1ccc(N2CCC3(CC2)CC3CCCN(C)C(=O)C(C)(C)c2ccccc2)cc1Cl (centres unmarked) [Example 7-34, 2-chloro-4-(1-(3-(N,2-dimethyl-2-phenylpropanamido)propyl)-6-azaspiro[2.5]octan-6-yl)-N,N-dimethylbenzamide]",264 nM,23%,No IP,0%,
"CN(C)C(=O)c1ccc(N2CCC(CCCN(C)C(=O)C3(c4ccccc4)OCCO3)CC2)nc1Cl [Example 1-14, 2-chloro-N,N-dimethyl-6-(4-(3-(N-methyl-2-phenyl-1,3-dioxolane-2-carboxamido)propyl)piperidin-1-yl)nicotinamide]",366 nM,19%,No IP,0%,
"CN(C)C(=O)c1ccc(N2CCC([C@H]3C[C@H](N(C)C(=O)[C@](O)(c4cccc(C5CC5)c4)C(F)(F)F)C3)CC2)nc1Cl [Example 17-1, 2-chloro-6-(4-((1R,3r)-3-((R)-2-(3-cyclopropylphenyl)-3,3,3-trifluoro-2-hydroxy-N-methylpropanamido)cyclobutyl)piperidin-1-yl)-N,N-dimethylnicotinamide]",18 nM,76%,No IP,14%,
"CN(C)C(=O)c1ccc(N2CCC(CCCN(C)C(=O)[C@](O)(c3ccccc3)C(F)(F)F)CC2)nc1C#N [Example 2-19, (R)-2-cyano-N,N-dimethyl-6-(4-(3-(3,3,3-trifluoro-2-hydroxy-N-methyl-2-phenylpropanamido)propyl)piperidin-1-yl)nicotinamide]",128 nM,76%,,23%,2610 nM
"COc1cccc([C@@](O)(C(=O)N(C)CC(C)CC2CCN(c3ccc(C(=O)N(C)C)c(Cl)n3)CC2)C(F)(F)F)c1 (single isomer, unassigned) [Example 3-2]",53 nM,81%,No IP,0%,
"CN(C)C(=O)c1ccc(N2CCC(CCCN(C)C(=O)[C@]3(c4cccc(Cl)c4)CCCO3)CC2)nc1Cl [Example 1-62, (R)-2-chloro-6-(4-(3-(2-(3-chlorophenyl)-N-methyltetrahydrofuran-2-carboxamido)propyl)piperidin-1-yl)-N,N-dimethylnicotinamide]",694 nM,28%,No IP,0%,
"CN(C)C(=O)c1ccc(N2CCC([C@H]3C[C@@H](N(C)C(=O)[C@](O)(c4cccc(C5CC5)c4)C(F)(F)F)C3)CC2)nc1Cl [Example 17-2, cis-2-chloro-6-(4-(-3-((R)-2-(3-cyclopropylphenyl)-3,3,3-trifluoro-2-hydroxy-N-methylpropanamido)cyclobutyl)piperidin-1-yl)-N,N-dimethylnicotinamide]",33 nM,43%,No IP,10%,
"CN(C)C(=O)c1ccc(N2CCC([C@H]3C[C@@H](N(C)C(=O)[C@](O)(c4cccc(OC5CC5)c4)C(F)(F)F)C3)CC2)nc1Cl [Example 17-5, Cis-2-chloro-6-(4-(-3-((R)-2-(3-cyclopropoxyphenyl)-3,3,3-trifluoro-2-hydroxy-N-methylpropanamido)cyclobutyl)piperidin-1-yl)-N,N-dimethylnicotinamide]",148 nM,20%,No IP,0%,
